Experiments:
Assay type in all cases: functional, Homo sapiens
[1] = test system: HL-60; assay: Compound was evaluated for the amount of TNF-alpha produced by HL-60 cells in the presence of 12-O-tetradecanoylphorbol-13-acetate (TPA) at concentration 0.3 uM
[2] = test system: HL-60; assay: Compound was evaluated for the amount of TNF-alpha produced by HL-60 cells in the presence of Okadaic acid (OA) at concentration 0.3 uM
[3] = test system: HL-60; assay: Compound was evaluated for the amount of TNF-alpha produced by HL-60 cells in the presence of 12-O-tetradecanoylphorbol-13-acetate (TPA) at concentration 30 uM
[4] = test system: HL-60; assay: Compound was evaluated for the amount of TNF-alpha produced by HL-60 cells in the presence of Okadaic acid (OA) at concentration 30 uM

Row | Structure (SMILES) | Production [1] | Production [2] | Production [3] | Production [4]
1 | C[C@@H](c1ccccc1)N1C(=O)c2c(F)c(F)c(F)c(F)c2C1=O | 143% | 70% | – | –
2 | C[C@]1(N2C(=O)c3ccccc3C2=O)CCC(=O)NC1=O | – | – | 358% | 75%
3 | C[C@H](c1ccccc1)N1C(=O)c2c(F)c(F)c(F)c(F)c2C1=O | 97% | 2% | – | –
4 | C[C@H](C1CCCCC1)N1C(=O)c2c(F)c(F)c(F)c(F)c2C1=O | 98% | 10% | – | –
5 | C[C@@H](c1cccc2ccccc12)N1C(=O)c2c(F)c(F)c(F)c(F)c2C1=O | 101% | 101% | – | –
6 | C[C@H](c1cccc2ccccc12)N1C(=O)c2c(F)c(F)c(F)c(F)c2C1=O | 100% | 2% | – | –
7 | C[C@@H](C1CCCCC1)N1C(=O)c2c(F)c(F)c(F)c(F)c2C1=O | 124% | 65% | – | –
8 | C[C@@]1(N2C(=O)c3ccccc3C2=O)CCC(=O)NC1=O | – | – | 103% | 39%
9 | O=C1CCC(N2C(=O)c3ccccc3C2=O)C(=O)N1 (stereo not drawn) [THALIDOMIDE] | – | – | 135% | 58%

— ChEMBL document CHEMBL1129176, “Enantio-dependence of inducer-specific bidirectional regulation of tumor necrosis factor (TNF)-alpha production: Potent TNF- production inhibitors” (1996)
